Tested on: CHD
Assay: Meta-analysis of CARE and WOSCOPS combined, synergy index, CHD endpoint
Assay type: in vivo, human
Source text: Tables 4-5 provide meta-analyses of CARE and WOSCOPS combined (2nd section of each table) for two endpoints (CHD and CVD) and three genetic models (dominant, recessive, and additive), as well as logistic regression analyses of CARE (3rd section of each table) and WOSCOPS (4th section of each table) individually.
Tables 12 and 17 provide results of meta-analysis of the CARE and WOSCOPS sample sets combined by direct genotyping and by imputing genotypes.
“P” indicates the p-value, and “P(R)” (or “P.R.”) indicates the p-value random effect. Both of these are p-values corresponding to a statistical test of whether the combined synergy index is equal to one but use different assumptions to derive the p-value. “P” is calculated using a fixed effects model, and “P(R)” is calculated using a random effects model.
“OR” indicates the odds ratio (synergy index) calculated from a fixed effects model, and “OR(R)” (or “OR.R.”) indicates the odds ratio (synergy index) calculated from a random effects model.

[1] = SNP rs1321432, allele (A1) A, RECESSIVE, Imputed
[2] = SNP rs1321457, allele (A1) G, RECESSIVE, Imputed
[3] = SNP rs1336382, allele (A1) T, DOMINANT, Imputed
[4] = SNP rs1336383, allele (A1) T, DOMINANT, Imputed
[5] = SNP rs1336407, allele (A1) T, DOMINANT, Imputed
[6] = SNP rs1336409, allele (A1) T, DOMINANT, Imputed
[7] = SNP rs1336596, allele (A1) A, DOMINANT, Imputed
[8] = SNP rs1343560, allele (A1) T, ADDITIVE, Imputed
[9] = SNP rs1343560, allele (A1) T, DOMINANT, Imputed
[10] = SNP rs1361987, allele (A1) T, GENOTYPIC, Imputed
[11] = SNP rs12923993, allele (A1) C, DOMINANT, Imputed
[12] = SNP rs12936964, allele (A1) T, DOMINANT, Imputed
[13] = SNP rs12960663, allele (A1) G, ADDITIVE, Imputed
[14] = SNP rs13038146, allele (A1) C, ADDITIVE, Imputed
[15] = SNP rs13038146, allele (A1) C, GENOTYPIC, Imputed
[16] = SNP rs13134222, allele (A1) A, GENOTYPIC, Imputed
[17] = SNP rs13172910, allele (A1) A, DOMINANT, Imputed
[18] = SNP rs13194907, allele (A1) A, ADDITIVE, Imputed
[19] = SNP rs13194907, allele (A1) A, DOMINANT, Imputed
[20] = SNP rs13195745, allele (A1) A, ADDITIVE, Imputed
[21] = SNP rs13195745, allele (A1) A, DOMINANT, Imputed
[22] = SNP rs13265054, allele (A1) T, DOMINANT, Imputed
[23] = SNP rs13282131, allele (A1) C, GENOTYPIC, Imputed
[24] = SNP rs13353526, allele (A1) C, DOMINANT, Imputed
[25] = rs1003148 allele C RECESSIVE Imputed
[26] = rs1008705 allele C DOMINANT Imputed
[27] = rs1149350 allele A DOMINANT Imputed
[28] = rs1150143 allele G DOMINANT Imputed
[29] = rs1204522 allele C GENOTYPIC Imputed
[30] = rs1204524 allele A GENOTYPIC Imputed
[31] = rs1232298 allele G RECESSIVE Imputed
[32] = rs1247340 allele C DOMINANT Imputed
[33] = rs1247341 allele C DOMINANT Imputed
[34] = rs10046799 allele C ADDITIVE Imputed
[35] = rs10046799 allele C GENOTYPIC Imputed
[36] = rs10051148 allele C DOMINANT Imputed
[37] = rs10054055 allele T DOMINANT Imputed

CC[C@H](C)C(=O)O[C@H]1C[C@H](O)C=C2C=C[C@H](C)[C@H](CC[C@@H](O)C[C@@H](O)CC(=O)O)[C@H]21 [Pravastatin, pravastatin]
OR [1]: 2.1221
OR(R) [1]: 2.1221
OR [2]: 2.0656
OR(R) [2]: 2.0656
OR [3]: 1.6135
OR(R) [3]: 1.6135
OR [4]: 1.6135
OR(R) [4]: 1.6135
OR [5]: 1.6135
OR(R) [5]: 1.6135
OR [6]: 1.6085
OR(R) [6]: 1.6059
OR [7]: 0.5951
OR(R) [7]: 0.5951
OR [8]: 0.5393
OR(R) [8]: 0.5393
OR [9]: 0.5034
OR(R) [9]: 0.5034
OR [10]: 0.4404
OR(R) [10]: 0.4404
OR [11]: 1.4572
OR(R) [11]: 1.4572
OR [12]: 1.6688
OR(R) [12]: 1.6688
OR [13]: 0.6241
OR(R) [13]: 0.6241
OR [14]: 1.3708
OR(R) [14]: 1.3708
OR [15]: 1.9308
OR(R) [15]: 1.9308
OR [16]: 0.3011
OR(R) [16]: 0.3011
OR [17]: 0.6547
OR(R) [17]: 0.6547
OR [18]: 2.303
OR(R) [18]: 2.303
OR [19]: 2.505
OR(R) [19]: 2.505
OR [20]: 2.303
OR(R) [20]: 2.303
OR [21]: 2.505
OR(R) [21]: 2.505
OR [22]: 0.6144
OR(R) [22]: 0.6144
OR [23]: 1.8412
OR(R) [23]: 1.8412
OR [24]: 1.9371
OR(R) [24]: 1.9371
Meta-analysis OR (rs1948 allele A vs G (ref)): 1.66
Meta-analysis OR (rs151806 allele G vs A (ref)): 0.63
Meta-analysis OR (rs205279 allele A vs G (ref)): 1.81
Meta-analysis OR (rs238272 allele A vs G (ref)): 1.45
Meta-analysis OR (rs312929 allele G vs A (ref)): 0.75
Meta-analysis OR (rs316720 allele G vs A (ref)): 0.71
Meta-analysis OR (rs331555 allele A vs C (ref)): 0.74
Meta-analysis OR (rs354342 allele A vs G (ref)): 0.67
Meta-analysis OR (rs453625, allele A1 A (non-ref), A2 G (ref), endpoint/model not given): 0.62
Meta-analysis OR (rs610118 allele G vs A (ref)): 0.49
Meta-analysis OR (rs669684 allele G vs A (ref)): 0.72
Meta-analysis OR (rs842796 allele A vs G (ref)): 1.59
Meta-analysis OR (rs886469 allele G vs A (ref)): 0.64
Meta-analysis OR (rs969356 allele G vs A (ref)): 0.63
OR [25]: 0.5819
OR(R) [25]: 0.5829
OR [26]: 1.4761
OR(R) [26]: 1.4761
Meta-analysis OR (rs1035618 allele A vs C (ref)): 1.42
Meta-analysis OR (rs1076733, allele A1 A (non-ref), A2 G (ref), endpoint/model not given): 0.67
OR [27]: 1.6713
OR(R) [27]: 1.6713
OR [28]: 1.6852
OR(R) [28]: 1.6852
Meta-analysis OR (rs1182878, allele A1 A (non-ref), A2 G (ref), endpoint/model not given): 0.78
OR [29]: 0.4353
OR(R) [29]: 0.4353
OR [30]: 0.4351
OR(R) [30]: 0.4351
OR [31]: 2.0566
OR(R) [31]: 2.0955
OR [32]: 1.6742
OR(R) [32]: 1.6742
OR [33]: 1.684
OR(R) [33]: 1.684
Meta-analysis OR (rs1343563 allele C vs A (ref)): 0.60
Meta-analysis OR (rs1349282 allele A vs G (ref)): 0.55
Meta-analysis OR (rs1382787 allele G vs A (ref)): 1.35
Meta-analysis OR (rs1474396, allele A1 A (non-ref), A2 C (ref), endpoint/model not given): 1.46
Meta-analysis OR (rs1615197 allele G vs A (ref)): 1.80
Meta-analysis OR (rs1884897 allele A vs G (ref)): 2.07
Meta-analysis OR (rs2008165 allele G vs A (ref)): 0.59
Meta-analysis OR (rs2023650 allele A vs G (ref)): 0.71
Meta-analysis OR (rs2060411 allele A vs G (ref)): 1.39
Meta-analysis OR (rs2104506 allele A vs C (ref)): 0.71
Meta-analysis OR (rs2129571, allele A1 A (non-ref), A2 G (ref), endpoint/model not given): 0.53
Meta-analysis OR (rs2145540 allele A vs G (ref)): 0.56
Meta-analysis OR (rs2268650 allele A vs G (ref)): 0.66
Meta-analysis OR (rs2273816 allele A vs G (ref)): 1.61
Meta-analysis OR (rs2290193, allele A1 C (non-ref), A2 A (ref), endpoint/model not given): 0.47
Meta-analysis OR (rs2376764 allele A vs G (ref)): 0.56
Meta-analysis OR (rs2418412 allele G vs A (ref)): 1.94
Meta-analysis OR (rs2483641, allele A1 A (non-ref), A2 G (ref), endpoint/model not given): 0.59
Meta-analysis OR (rs2534752 allele G vs A (ref)): 1.65
Meta-analysis OR (rs2626130 allele G vs A (ref)): 1.32
Meta-analysis OR (rs2695026 allele A vs G (ref)): 0.67
Meta-analysis OR (rs2793086 allele C vs A (ref)): 0.65
Meta-analysis OR (rs2941528 allele A vs G (ref)): 0.67
Meta-analysis OR (rs3000490 allele G vs A (ref)): 1.38
Meta-analysis OR (rs3213616 allele A vs G (ref)): 0.62
Meta-analysis OR (rs3732788 allele G vs A (ref)): 0.51
Meta-analysis OR (rs3798544 allele A vs G (ref)): 1.57
Meta-analysis OR (rs3998860 allele A vs G (ref)): 0.61
Meta-analysis OR (rs4289236 allele A vs G (ref)): 1.41
Meta-analysis OR (rs4611134 allele A vs G (ref)): 1.55
Meta-analysis OR (rs4643388 allele G vs A (ref)): 1.34
Meta-analysis OR (rs4682522 allele C vs A (ref)): 0.55
Meta-analysis OR (rs4830819 allele G vs A (ref)): 0.60
Meta-analysis OR (rs4869033 allele G vs A (ref)): 0.36
Meta-analysis OR (rs4924215 allele A vs G (ref)): 1.65
Meta-analysis OR (rs4986146 allele A vs G (ref)): 0.63
Meta-analysis OR (rs4993917 allele A vs C (ref)): 0.60
Meta-analysis OR (rs5017584 allele A vs G (ref)): 1.74
Meta-analysis OR (rs6075209 allele A vs G (ref)): 0.64
Meta-analysis OR (rs6080603 allele A vs C (ref)): 0.62
Meta-analysis OR (rs6491586 allele G vs A (ref)): 1.65
Meta-analysis OR (rs6505669 allele G vs A (ref)): 1.58
Meta-analysis OR (rs6911817, allele A1 A (non-ref), A2 G (ref), endpoint/model not given): 2.85
Meta-analysis OR (rs7094941, allele A1 G (non-ref), A2 A (ref), endpoint/model not given): 0.74
Meta-analysis OR (rs7179134 allele A vs G (ref)): 3.52
Meta-analysis OR (rs7193741 allele A vs C (ref)): 2.04
Meta-analysis OR (rs7327364 allele A vs G (ref)): 0.68
Meta-analysis OR (rs7497613, allele A1 A (non-ref), A2 G (ref), endpoint/model not given): 0.55
Meta-analysis OR (rs7616936, allele A1 C (non-ref), A2 A (ref), endpoint/model not given): 1.77
Meta-analysis OR (rs7705993 allele G vs A (ref)): 1.48
Meta-analysis OR (rs7767024, allele A1 A (non-ref), A2 G (ref), endpoint/model not given): 1.42
Meta-analysis OR (rs7910196, allele A1 G (non-ref), A2 A (ref), endpoint/model not given): 1.47
Meta-analysis OR (rs8051893 allele A vs G (ref)): 0.67
Meta-analysis OR (rs8109631 allele A vs G (ref)): 1.53
Meta-analysis OR (rs9375683 allele G vs A (ref)): 1.49
Meta-analysis OR (rs9436636 allele A vs G (ref)): 1.35
Meta-analysis OR (rs9446187 allele A vs G (ref)): 1.96
Meta-analysis OR (rs9658127, allele A1 A (non-ref), A2 G (ref), endpoint/model not given): 2.79
OR [34]: 0.724
OR(R) [34]: 0.7134
OR [35]: 0.5342
OR(R) [35]: 0.5221
OR [36]: 0.5783
OR(R) [36]: 0.5783
OR [37]: 0.5791
OR(R) [37]: 0.5791
OR (rs10067895 allele A DOMINANT Imputed): 0.5759

Source: patent US10563263B2, “Genetic polymorphisms associated with statin response and cardiovascular diseases, methods of detection and uses thereof” (CELERA CORPORATION, priority 2010, dated 2020)
